Consider 1 molecule from PMC11649521 (The Journal of Physiology, 2024).

Experiment in all cases: cell-based
Conditions in all cases: read-out: % block at 1 μM PhTx

The target of assay [1] is B/α (type-B iGluR/Neto-α; GluRIIB/C/D/E + Neto-α) (Drosophila melanogaster, UniProt Q0KI42+Q7KSB1+Q9VMP3+Q9VPV3).
Assay [2] concerns the target B/β (type-B iGluR/Neto-β; GluRIIB/C/D/E + Neto-β) (Drosophila melanogaster, UniProt Q0KI42+Q7KSB1+Q9VMP3+Q9VPV3).
Assay [3] addresses A/β (type-A iGluR/Neto-β; GluRIIA/C/D/E + Neto-β) (Drosophila melanogaster, UniProt Q0KI42+Q7KSB1+Q9VMP4+Q9VPV3).

Chain of A/β (type-A iGluR/Neto-β; GluRIIA/C/D/E + Neto-β) (Q9VMP4 22-907): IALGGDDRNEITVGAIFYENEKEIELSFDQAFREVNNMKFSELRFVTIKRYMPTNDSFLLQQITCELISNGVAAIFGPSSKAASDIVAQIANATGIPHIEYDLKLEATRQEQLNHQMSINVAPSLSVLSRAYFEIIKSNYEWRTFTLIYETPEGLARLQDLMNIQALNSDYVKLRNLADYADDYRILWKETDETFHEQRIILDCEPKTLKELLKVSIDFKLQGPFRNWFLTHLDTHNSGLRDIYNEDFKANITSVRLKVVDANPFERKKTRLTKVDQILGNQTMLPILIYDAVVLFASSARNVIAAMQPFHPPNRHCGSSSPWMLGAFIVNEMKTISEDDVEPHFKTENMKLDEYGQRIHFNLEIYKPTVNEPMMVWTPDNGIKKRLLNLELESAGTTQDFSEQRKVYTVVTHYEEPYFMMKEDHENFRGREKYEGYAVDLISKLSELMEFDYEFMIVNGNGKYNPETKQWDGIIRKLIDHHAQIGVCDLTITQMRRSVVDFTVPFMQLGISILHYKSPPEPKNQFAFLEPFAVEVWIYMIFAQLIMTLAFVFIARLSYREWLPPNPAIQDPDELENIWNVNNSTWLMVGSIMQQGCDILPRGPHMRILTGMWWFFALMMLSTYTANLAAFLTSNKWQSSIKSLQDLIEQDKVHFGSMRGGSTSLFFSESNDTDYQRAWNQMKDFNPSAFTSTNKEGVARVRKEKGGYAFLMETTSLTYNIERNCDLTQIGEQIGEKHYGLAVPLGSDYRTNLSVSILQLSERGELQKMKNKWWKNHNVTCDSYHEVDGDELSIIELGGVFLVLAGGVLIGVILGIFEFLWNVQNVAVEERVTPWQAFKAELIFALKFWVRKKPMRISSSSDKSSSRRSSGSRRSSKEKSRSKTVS
Chain of A/β (type-A iGluR/Neto-β; GluRIIA/C/D/E + Neto-β) (Q9VPV3 23-940): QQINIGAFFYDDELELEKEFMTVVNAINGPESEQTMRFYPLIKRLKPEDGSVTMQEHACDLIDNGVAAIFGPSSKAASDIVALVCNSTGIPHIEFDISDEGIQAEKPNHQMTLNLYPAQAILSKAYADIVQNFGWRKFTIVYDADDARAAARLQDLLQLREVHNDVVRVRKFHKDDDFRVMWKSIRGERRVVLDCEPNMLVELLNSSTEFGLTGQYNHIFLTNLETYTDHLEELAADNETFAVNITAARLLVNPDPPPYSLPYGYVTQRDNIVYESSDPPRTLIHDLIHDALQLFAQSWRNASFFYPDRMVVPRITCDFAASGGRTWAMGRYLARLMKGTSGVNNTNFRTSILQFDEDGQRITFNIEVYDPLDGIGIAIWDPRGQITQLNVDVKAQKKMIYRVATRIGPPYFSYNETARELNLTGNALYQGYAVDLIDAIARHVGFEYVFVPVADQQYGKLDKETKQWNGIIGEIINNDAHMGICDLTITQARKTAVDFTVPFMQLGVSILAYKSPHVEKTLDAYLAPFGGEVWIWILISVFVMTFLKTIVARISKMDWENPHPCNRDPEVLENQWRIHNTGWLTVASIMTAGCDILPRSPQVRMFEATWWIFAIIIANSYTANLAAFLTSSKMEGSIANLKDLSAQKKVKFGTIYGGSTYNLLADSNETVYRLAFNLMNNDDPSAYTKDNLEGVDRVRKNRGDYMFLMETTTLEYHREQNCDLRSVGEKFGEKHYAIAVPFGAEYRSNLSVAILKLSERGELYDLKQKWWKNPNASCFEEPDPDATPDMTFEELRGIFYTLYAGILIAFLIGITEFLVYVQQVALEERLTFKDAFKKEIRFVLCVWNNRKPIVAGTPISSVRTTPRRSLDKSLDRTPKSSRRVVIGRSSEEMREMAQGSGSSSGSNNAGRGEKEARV
Chain of A/β (type-A iGluR/Neto-β; GluRIIA/C/D/E + Neto-β) (Q7KSB1 19-902): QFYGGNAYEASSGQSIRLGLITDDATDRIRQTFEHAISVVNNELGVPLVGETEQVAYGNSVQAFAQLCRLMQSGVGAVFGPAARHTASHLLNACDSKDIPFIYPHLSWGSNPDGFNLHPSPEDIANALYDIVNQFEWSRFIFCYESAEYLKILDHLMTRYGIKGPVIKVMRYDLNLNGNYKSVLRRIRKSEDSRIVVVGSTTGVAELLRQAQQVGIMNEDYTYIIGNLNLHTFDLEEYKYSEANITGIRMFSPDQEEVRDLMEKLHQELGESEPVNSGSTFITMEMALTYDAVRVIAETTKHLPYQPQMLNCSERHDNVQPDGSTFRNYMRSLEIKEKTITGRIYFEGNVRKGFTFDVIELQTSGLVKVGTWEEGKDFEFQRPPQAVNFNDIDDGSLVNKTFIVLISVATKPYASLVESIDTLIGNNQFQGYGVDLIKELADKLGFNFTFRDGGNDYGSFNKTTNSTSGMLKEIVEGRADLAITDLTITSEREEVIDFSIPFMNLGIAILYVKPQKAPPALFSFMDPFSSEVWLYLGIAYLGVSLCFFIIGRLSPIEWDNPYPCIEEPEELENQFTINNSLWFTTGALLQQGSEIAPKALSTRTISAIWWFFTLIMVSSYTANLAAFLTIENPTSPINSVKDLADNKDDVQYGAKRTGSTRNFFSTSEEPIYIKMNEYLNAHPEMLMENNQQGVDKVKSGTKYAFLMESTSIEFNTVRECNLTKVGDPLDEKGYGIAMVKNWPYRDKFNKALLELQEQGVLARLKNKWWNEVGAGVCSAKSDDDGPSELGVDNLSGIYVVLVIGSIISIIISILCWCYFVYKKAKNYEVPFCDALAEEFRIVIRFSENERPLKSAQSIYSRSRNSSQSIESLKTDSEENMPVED
Chain of A/β (type-A iGluR/Neto-β; GluRIIA/C/D/E + Neto-β) (Q0KI42 23-897): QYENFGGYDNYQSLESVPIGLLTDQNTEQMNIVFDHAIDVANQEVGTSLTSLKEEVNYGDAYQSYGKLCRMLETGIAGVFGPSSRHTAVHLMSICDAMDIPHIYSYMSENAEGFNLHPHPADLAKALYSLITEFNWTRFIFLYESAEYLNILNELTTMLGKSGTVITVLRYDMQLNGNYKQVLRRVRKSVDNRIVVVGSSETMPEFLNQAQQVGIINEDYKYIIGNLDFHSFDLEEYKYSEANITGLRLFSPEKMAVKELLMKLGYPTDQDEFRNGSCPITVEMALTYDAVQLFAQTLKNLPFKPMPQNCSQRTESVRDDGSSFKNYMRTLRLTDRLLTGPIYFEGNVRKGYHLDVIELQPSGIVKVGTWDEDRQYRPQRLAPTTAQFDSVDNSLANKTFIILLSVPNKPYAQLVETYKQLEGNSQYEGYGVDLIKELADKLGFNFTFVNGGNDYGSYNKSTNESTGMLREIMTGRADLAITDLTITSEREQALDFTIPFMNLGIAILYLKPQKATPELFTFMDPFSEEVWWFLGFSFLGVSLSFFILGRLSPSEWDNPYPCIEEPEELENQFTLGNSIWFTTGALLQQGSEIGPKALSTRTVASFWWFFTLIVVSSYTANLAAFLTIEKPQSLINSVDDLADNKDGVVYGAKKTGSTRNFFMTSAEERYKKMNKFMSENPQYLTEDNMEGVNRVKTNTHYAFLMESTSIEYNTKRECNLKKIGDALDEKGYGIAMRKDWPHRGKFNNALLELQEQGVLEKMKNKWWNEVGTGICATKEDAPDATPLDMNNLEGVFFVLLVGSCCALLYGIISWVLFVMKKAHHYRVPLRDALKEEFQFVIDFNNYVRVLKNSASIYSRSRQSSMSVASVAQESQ
Chain of A/β (type-A iGluR/Neto-β; GluRIIA/C/D/E + Neto-β) (X2JDL4 127-822 partner limits assumed): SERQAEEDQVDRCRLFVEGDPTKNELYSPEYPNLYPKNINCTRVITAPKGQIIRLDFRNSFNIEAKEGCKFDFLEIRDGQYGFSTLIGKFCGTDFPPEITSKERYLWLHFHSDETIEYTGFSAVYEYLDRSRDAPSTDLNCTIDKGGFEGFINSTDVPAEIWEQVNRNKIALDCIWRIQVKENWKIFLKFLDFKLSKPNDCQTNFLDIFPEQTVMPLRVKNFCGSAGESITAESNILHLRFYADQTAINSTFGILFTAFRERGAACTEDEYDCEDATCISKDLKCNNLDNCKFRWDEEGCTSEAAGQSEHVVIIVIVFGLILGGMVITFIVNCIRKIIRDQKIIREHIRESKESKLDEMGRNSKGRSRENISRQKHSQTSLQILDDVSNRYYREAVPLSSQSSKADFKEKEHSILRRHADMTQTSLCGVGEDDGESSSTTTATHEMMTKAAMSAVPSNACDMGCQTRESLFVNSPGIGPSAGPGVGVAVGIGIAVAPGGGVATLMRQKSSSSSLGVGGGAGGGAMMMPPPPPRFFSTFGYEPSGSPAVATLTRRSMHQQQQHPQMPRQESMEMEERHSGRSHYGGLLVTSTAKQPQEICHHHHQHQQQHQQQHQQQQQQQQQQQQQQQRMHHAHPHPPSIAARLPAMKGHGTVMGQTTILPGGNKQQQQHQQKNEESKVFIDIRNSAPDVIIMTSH

As to `CCCC(=O)N[C@@H](Cc1ccc(O)cc1)C(=O)NCCCNCCCCNCCCN` [PhTx, philanthotoxin‐343], the inhibition at 1 µM in assay [1] came to 83.3 ± 5.07%; in assay [2], 74.7 ± 1.72%; in assay [3], 98.8 ± 0.67%.
